Measurements as given in patent US4008285A, “Process for making xylitol” (priority 1975, dated 1977).

Assay: Solubility of galactitol (no method)
Format: physicochemical
Conditions: galactitol tends to crystallize with xylitol crystals; no solvent or temperature printed

OC[C@@H](O)[C@H](O)[C@H](O)[C@@H](O)CO [galactitol]
solubility: very low solubility
